From ChEMBL document CHEMBL1201862, “PubChem BioAssay data set” (2004) come the findings set out here.

Molecules are shown by their SMILES. Active and inactive are the calls of the source. Where only a bound is given, the exact number is not on record here.

Assay [1] concerns the target T1, Short transient receptor potential channel 4 (Mus musculus, UniProt Q9QUQ5).
T1 sequence (Q9QUQ5 whole entry): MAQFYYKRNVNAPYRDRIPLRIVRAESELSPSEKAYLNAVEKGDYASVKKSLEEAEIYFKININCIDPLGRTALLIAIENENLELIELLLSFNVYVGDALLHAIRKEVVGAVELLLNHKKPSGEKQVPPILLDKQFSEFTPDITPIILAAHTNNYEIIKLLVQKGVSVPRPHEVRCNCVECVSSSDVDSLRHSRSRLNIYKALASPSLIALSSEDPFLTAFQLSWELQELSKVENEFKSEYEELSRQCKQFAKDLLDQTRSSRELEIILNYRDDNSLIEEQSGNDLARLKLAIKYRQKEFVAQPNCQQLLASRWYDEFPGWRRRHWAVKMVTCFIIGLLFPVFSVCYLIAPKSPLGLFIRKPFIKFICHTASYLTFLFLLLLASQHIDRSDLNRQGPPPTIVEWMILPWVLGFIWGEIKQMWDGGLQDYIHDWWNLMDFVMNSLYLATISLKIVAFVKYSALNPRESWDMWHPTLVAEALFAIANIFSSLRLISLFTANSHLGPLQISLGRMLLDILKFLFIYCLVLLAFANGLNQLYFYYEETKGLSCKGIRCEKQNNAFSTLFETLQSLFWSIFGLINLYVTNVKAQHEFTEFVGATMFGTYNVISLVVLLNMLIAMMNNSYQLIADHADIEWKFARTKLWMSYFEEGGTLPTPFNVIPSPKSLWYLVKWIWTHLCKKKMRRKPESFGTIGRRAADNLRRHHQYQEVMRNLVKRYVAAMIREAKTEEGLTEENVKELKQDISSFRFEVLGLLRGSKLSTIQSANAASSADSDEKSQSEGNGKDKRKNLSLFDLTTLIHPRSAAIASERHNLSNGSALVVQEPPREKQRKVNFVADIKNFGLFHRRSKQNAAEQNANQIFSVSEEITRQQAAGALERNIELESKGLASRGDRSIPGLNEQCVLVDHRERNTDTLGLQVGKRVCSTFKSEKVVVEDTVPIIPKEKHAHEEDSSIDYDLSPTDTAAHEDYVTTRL
Briefly: mouse TRPC4 channel inhibitors, dose response, cell-based, HEK293 TRPC4/mu-opioid, Fluo-4 calcium (AID 434942).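 Further: potency of inhibitors blocking the TRPC4 calcium response.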 Format: functional.

Assay [2] concerns the target Glyceraldehyde-3-phosphate dehydrogenase (Homo sapiens, UniProt P04406).
The nature of assay [3]: THP-1 cell cytotoxicity, dose response, cytotoxicity control for non-replicating M. tuberculosis project (AID 489025). Format: functional.
In another assay the test system is HEK293. Briefly: inhibitors of LMP1-driven NF-kB reporter, dose response, cell-based, HEK293, luciferase, cherry-pick (AID 588343). Format: functional. The conditions noted are these: Homo sapiens.
The target of assay [4] is T2, Zinc finger protein mex-5 (Caenorhabditis elegans, UniProt Q9XUB2).
T2 sequence (Q9XUB2 whole entry): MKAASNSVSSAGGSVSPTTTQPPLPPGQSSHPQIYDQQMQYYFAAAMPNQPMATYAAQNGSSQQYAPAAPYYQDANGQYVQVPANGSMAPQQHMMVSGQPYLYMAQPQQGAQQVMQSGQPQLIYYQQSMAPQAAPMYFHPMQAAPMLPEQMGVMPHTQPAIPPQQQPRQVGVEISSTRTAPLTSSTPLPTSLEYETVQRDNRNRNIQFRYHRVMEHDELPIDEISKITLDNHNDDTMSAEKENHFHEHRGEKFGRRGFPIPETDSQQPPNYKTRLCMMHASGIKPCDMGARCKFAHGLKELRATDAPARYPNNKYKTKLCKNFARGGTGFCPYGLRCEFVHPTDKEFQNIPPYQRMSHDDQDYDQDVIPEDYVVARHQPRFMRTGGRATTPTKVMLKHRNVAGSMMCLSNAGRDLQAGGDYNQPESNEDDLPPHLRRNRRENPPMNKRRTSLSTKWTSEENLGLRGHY
Briefly: MEX-5/TCR-2 RNA interaction inhibitors, dose response, biochemical, C. elegans, fluorescence polarization (AID 1960). Background: Fluorescence polarisation rises when a labelled molecule tumbles more slowly, as on binding a larger partner.

Assay [5] has as its target T3, RNA-binding protein pos-1 (Caenorhabditis elegans, UniProt G5EF15).
T3 sequence (G5EF15 whole entry): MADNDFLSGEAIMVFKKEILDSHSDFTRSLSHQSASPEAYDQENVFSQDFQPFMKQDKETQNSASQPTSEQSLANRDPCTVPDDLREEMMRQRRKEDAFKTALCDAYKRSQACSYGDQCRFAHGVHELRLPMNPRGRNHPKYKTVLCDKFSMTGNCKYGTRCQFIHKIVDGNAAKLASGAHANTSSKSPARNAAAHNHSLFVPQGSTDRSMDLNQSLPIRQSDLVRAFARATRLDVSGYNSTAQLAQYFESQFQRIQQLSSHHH
Nature of the assay: inhibitors of POS-1/mex-3 RNA binding, dose response, biochemical, fluorescence polarization (AID 1964).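 Further: purified POS-1 fused to maltose binding protein made in E. coli; potency of compounds blocking POS-1 binding to fluorescent RNA.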

The target in a further assay is Genome polyprotein (dengue virus type 2, UniProt P29990). Nature of the assay: Dengue-2 NS5 methyltransferase inhibitors, primary screen, biochemical, confirmation dose response (AID 588689). Format: functional.
Assay [6] deals with BJ. Nature of the assay: cells. Format: functional, cell-based. The conditions noted are these: Homo sapiens.
A further assay relates to Streptococcus. Briefly: Group A Streptococcus viability loss, dose response, counter-screen for streptokinase expression inhibitor project, luminescence, BacTiterGlo (AID 1915).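 Further: potency for reduction of bacterial viability or growth.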 Format: functional, organism-based.
A short description of assay [7]: cytotoxicity toward DRD oncogenic fibroblasts, dose response, cell-based, non-viral oncogenic, luminescence (AID 1934). Format: functional. The conditions noted are these: Homo sapiens.
Assay [8] can be described thus: NIH-3T3 fibroblast cytotoxicity, dose response, cytotoxicity control, cell-based, fluorescence, Alamar Blue, secondary assay (AID 2327).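 Further: NIH-3T3 mouse fibroblasts cultured with fluconazole at 8 µg/mL.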 Format: functional. For orientation: Resazurin is reduced to fluorescent resorufin, in cell work by metabolically active cells.
A further assay has as its target Large T antigen (Simian virus 40, UniProt P03070). The assay is classed as functional, Betapolyomavirus macacae.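 Further: Confirmatory-stage PubChem screen for compounds that inhibit SV40 T antigen.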
A further assay addresses T4, Streptokinase A (Streptococcus pyogenes serotype M1, UniProt P10520).
T4 sequence (P10520 whole entry): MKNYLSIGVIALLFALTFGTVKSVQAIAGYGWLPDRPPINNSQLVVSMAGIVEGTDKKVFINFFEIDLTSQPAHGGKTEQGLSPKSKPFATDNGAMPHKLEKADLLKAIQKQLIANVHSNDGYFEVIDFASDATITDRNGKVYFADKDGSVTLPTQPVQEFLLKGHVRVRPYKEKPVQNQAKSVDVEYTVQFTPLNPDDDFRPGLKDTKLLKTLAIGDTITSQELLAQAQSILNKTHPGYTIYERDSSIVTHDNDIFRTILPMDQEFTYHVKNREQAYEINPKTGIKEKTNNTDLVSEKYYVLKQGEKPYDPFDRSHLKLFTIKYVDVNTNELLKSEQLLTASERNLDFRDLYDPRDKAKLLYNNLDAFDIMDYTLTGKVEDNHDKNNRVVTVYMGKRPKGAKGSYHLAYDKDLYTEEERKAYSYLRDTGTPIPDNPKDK
Nature of the assay: S. pyogenes streptokinase expression inhibitors, potency, dose response, plasminogen activation absorbance, OD405 (AID 1914).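 Further: secreted streptokinase activity via plasminogen activation per viability signal from cell pellet.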 Format: functional, Streptococcus pyogenes M1 GAS.

For assay [9], the target named is Heat shock protein HSP 90-alpha (Homo sapiens, UniProt P07900). The assay is classed as functional, organism-based.
Assay [10] deals with Streptococcus sp. 'group A'. Briefly: growth inhibition of control SK(-) GAS strain, dose response, counter-screen for streptokinase expression inhibitor project, luminescence, kanamycin, BacTiterGlo, confirmation (AID 1900). The assay is classed as functional, organism-based. (In general: The purpose of a counterscreen is to sort out artefacts and off-target activity.)
Another assay has as its system INS1. Nature of the assay: beta cell apoptosis inhibitors, cytokine rescue, dose response, luminescence, retest (AID 449756).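 Further: cell death triggered by IL-1 beta plus TNF-alpha plus IFN-gamma mixture; protective hits raise ATP signal compared with cytokine alone wells.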 The assay is classed as functional, cell-based. Particulars: Rattus norvegicus.
Assay [11] concerns BJ. Briefly: cytotoxicity toward BJ-TERT fibroblasts, dose response, cell-based, RAS-independent, luminescence (AID 1933). The assay is classed as functional. Particulars: Homo sapiens.
For assay [12], the system named is BJ. Nature of the assay: cytotoxicity toward BJ-TERT-LT-ST fibroblasts, dose response, cell-based, RAS-independent, luminescence (AID 1935).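 Further: BJ fibroblasts immortalized with TERT plus LT and ST oncogenes.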 Format: functional. Particulars: Homo sapiens.
The nature of assay [13]: growth suppression of beta-catenin-knockout colon cells, dose response, cell-based, HCT116, human colon tumor (AID 1045).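 Further: HCT116 colon tumor cells with beta catenin knocked out; cells exposed to compound for 60 hours.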 Format: functional.
Assay [14] is described as follows: growth suppression of PTEN-null colon cells, dose response, cell-based, HCT116 PTEN knockout (AID 1047).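 Further: HCT116 colon tumor cells with PTEN knocked out; cells exposed to compound for 60 hours before readout; potency for loss of cell viability measured by luminescence.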 Format: functional.

Chain of Genome polyprotein (P29990 2492-3391 limits assumed): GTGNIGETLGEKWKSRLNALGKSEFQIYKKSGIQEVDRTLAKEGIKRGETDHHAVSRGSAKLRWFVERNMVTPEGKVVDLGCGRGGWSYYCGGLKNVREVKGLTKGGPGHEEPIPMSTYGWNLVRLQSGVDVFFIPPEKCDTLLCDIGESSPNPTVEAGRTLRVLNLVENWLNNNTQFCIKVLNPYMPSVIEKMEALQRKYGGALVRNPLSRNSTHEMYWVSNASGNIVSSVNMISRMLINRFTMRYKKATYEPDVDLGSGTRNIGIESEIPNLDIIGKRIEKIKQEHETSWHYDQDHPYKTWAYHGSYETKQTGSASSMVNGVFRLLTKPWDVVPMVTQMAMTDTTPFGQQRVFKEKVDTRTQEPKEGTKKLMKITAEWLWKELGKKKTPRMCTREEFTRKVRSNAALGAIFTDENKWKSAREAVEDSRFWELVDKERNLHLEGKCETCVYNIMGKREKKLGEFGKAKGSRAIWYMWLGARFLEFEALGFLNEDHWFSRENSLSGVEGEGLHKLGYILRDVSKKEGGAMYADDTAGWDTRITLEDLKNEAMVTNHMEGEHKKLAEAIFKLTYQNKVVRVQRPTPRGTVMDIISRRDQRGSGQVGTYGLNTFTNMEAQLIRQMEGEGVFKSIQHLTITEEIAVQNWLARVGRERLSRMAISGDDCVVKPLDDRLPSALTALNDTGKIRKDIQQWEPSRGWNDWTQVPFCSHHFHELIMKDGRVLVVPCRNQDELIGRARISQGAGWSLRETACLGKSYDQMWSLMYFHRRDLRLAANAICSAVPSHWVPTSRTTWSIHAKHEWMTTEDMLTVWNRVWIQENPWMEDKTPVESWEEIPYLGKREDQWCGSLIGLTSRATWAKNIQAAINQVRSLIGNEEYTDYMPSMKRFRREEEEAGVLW
Chain of Large T antigen (P03070 whole entry): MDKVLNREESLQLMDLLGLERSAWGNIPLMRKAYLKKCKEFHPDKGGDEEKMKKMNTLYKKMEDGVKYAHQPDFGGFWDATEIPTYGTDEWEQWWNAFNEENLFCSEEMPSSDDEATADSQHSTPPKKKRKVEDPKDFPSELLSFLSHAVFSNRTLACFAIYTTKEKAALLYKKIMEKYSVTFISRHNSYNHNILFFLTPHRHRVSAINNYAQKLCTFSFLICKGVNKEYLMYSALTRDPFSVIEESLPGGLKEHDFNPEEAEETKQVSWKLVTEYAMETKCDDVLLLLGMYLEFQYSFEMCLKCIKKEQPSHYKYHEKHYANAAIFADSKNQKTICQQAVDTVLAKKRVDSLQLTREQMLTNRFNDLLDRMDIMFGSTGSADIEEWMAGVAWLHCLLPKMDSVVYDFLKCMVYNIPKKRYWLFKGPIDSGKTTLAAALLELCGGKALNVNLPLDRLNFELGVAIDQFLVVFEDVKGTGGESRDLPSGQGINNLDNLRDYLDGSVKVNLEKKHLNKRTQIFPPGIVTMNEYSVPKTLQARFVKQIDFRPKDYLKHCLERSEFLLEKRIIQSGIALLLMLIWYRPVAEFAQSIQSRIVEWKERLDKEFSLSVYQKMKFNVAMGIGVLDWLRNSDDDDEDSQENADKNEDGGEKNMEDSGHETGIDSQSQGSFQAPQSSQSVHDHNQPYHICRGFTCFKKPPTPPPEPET
Chain of Glyceraldehyde-3-phosphate dehydrogenase (P04406 whole entry): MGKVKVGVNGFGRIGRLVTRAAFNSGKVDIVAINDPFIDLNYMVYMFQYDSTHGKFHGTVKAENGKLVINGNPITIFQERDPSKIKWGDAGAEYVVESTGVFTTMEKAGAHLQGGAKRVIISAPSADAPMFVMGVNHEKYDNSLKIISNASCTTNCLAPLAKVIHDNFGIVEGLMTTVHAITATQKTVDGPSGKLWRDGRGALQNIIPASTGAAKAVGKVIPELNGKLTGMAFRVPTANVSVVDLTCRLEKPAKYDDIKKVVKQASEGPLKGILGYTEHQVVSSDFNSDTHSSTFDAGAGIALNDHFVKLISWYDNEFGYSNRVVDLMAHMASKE

For `Cc1cccn2cc(-c3c[nH]c4ccccc34)nc12`, the EC50 – broadly, the concentration giving half of the maximal effect – in assay [1] is 5.96 µM (active).

On to `CC1CC(C)(C)NCCNC(C)CC(C)(C)NCCN1` (centres undefined), for which the IC50 – broadly, the concentration at which inhibition is half-maximal – in assay [2] was > 10 µM (inconclusive).

For the compound `Cc1ccc(CNC(C)c2ccccc2)cc1` (centres undefined), the EC50 in assay [1] is 6.68 µM (active).

Regarding `Cc1nc(Cl)nc(N(C)c2ccccc2)c1[N+](=O)[O-]`, in assay [1], the EC50 is 13.3 µM (active). Besides, the CC50 (usually the concentration that lowers cell viability or growth by half) in assay [3] is 22.9 µM (active).

Regarding `Cc1c(NC(=O)c2cc(-c3cccs3)nc3ccccc23)c(=O)n(-c2ccccc2)n1C`, the AC50 (usually the midpoint of the concentration-response curve, whichever way the signal moves) in the assay on HEK293 was > 350 µM (inactive).

As to `O=C(O)c1cccc(-n2cccc2C=C2C(=O)c3ccccc3C2=O)c1`, the half-maximal effective concentration (EC50) was 48.5 µM (active) in assay [4] and 37 µM (active) in assay [5].

Take `Cc1cccc2nc(CSc3ccc(Cl)cc3)cn12`: the EC50 in [1] is 4.22 µM (active).

Consider `COc1cccc(/C=C2/C(=O)NN(c3ccc(C)c(C)c3)C2=O)c1`, for which the IC50 on Genome polyprotein was > 100 µM (active).

For the compound `O=C(/C=C/c1cccc(Cl)c1)c1ccc([N+](=O)[O-])o1`, the EC50 was 9.18 µM (inconclusive) in the assay on BJ [6]; 6.98 µM (active) with Streptococcus; 2.5 µM (inconclusive) in assay [7]; 4.56 µM (inconclusive) in [8]; 3.36 µM (active) on Streptokinase A; 3.18 µM (active) in [10]. Further, in the assay with BJ [11], the EC50 was > 150 µM (inconclusive). Also, the IC50 on Large T antigen is 40.9 µM (active). Also, the AC50 was 1.28 µM (active) in [9] and 2.31 µM (active) with INS1.

With `N=c1c(S(=O)(=O)c2ccccc2)cc2c(=O)n3ccccc3nc2n1Cc1cccnc1`, the EC50 in assay [4] was 6.91 µM (inconclusive); in assay [5], 68.1 µM (inconclusive).

Regarding `Brc1cc2c(cc1C1Nc3ccccc3C3C=CCC31)OCO2` (centres undefined), the EC50 in assay [4] is > 300 µM (not active); with Streptococcus it was 25.4 µM (active); at Streptokinase A, 2.55 µM (active); in [10], 7.1 µM (active); in [5] it was > 300 µM (not active).

`N#Cc1c(SC(C(=O)O)c2ccccc2)nc2c(c1-c1cccs1)CCCC2` (centres undefined): the IC50 on Genome polyprotein is 39.2 µM (active).

Turning to `COc1cc(C(=O)N2CCN(c3ccc(C)cc3C)CC2)cc(OC)c1OC`, the EC50 in the assay with BJ [6] is 138 µM (inconclusive); in the assay with BJ [12], 21.8 µM (inconclusive); in [7], 3.97 µM (active); in assay [13], 3.45 µM (active); in assay [14] it was 2.65 µM (active); with BJ [11], 11.9 µM (active).
